Values quoted from earlier work, collected in PMC10555500, “Evaluation of the Antiproliferative Properties of CpRu Complexes Containing N-Methylated Triazaphosphaadamantane Derivatives” (Bioinorganic Chemistry and Applications, 2023).

Experiments:
Parameters in all cases: method as in doi:10.1021/acsomega.8b02849, PMID 31241925
Conditions in all cases: positive control; ref [44], [45]; cited from earlier work
[1] = test system: normal human fibroblasts (HDF)
[2] = test system: MDA-MB-231 breast cancer cells
[3] = test system: MCF-7 breast cancer cells

In the case of `N.N.[Cl][Pt][Cl]` [Cisplatin, cis-[PtCl2(NH3)2]], the IC50 [1] is listed as about 100 µM, the IC50 [2] is listed as over 100 µM and the IC50 [3] is listed as 38 ± 1.4 µM.
